In assay [1] the target is KRas G12D (Homo sapiens, UniProt P01116, G12D). Kind of assay: biochemical.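 Note: TR-FRET displacement binding assay on KRas, read after a one-hour incubation at room temperature, IC50 fitted from percent-of-control values.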
Procedure: (§1) The ability of a compound to bind to KRas was measured using a TR-FRET displacement assay. […] After a 60-minute incubation at room temperature, the reaction was measured using a BMG LABTECH CLARIO star Plus via TR-FRET. […] The POC values were fit to a 4-parameter IC50 equation and the IC50 value reported.
The target in assay [2] is KRas G12V (Homo sapiens, UniProt P01116, G12V). Kind of assay: biochemical.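 Note: KRas binding measured by TR-FRET displacement at room temperature, IC50 fitted from percent of control values.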
Procedure: as §1
For assay [3], the target named is KRas G12R (Homo sapiens, UniProt P01116, G12R). Kind of assay: biochemical.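 Note: TR-FRET displacement assay of compound binding to KRas, read after one hour at room temperature, potency from a four-parameter fit of percent-of-control values.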
Sequence of KRas G12R (P01116 1-169 isoform P01116-2 G12R): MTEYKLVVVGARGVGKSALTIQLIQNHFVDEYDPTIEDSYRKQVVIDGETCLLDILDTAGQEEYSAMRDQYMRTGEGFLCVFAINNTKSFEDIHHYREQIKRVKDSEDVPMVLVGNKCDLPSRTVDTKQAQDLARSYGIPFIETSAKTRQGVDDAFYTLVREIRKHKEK
Procedure: as §1
The subject of assay [4] is pERK in MKN1 cells. Kind of assay: Inhibition of KRas phosphorylation of ERK (Cisbio HTRF pERK assay). The note with it: Homo sapiens, MKN-1, 3 h, read-out: Inhibition (HTRF IC50) of KRas-mediated Phosphorylation of ERK, MKN1. (In general: Time-resolved FRET reads energy transfer from a long-lived donor to a nearby acceptor.)
The test system of assay [5] is pERK in PSN1 cells. The assay is described as above. Particulars: Homo sapiens, PSN1, 3 h, read-out: Inhibition (HTRF IC50) of KRas-mediated Phosphorylation of ERK, PSN1.
The subject of assay [6] is pERK in ASPC1 cells. The description is as above. Particulars: Homo sapiens, ASPC1, read-out: Inhibition (HTRF IC50) of KRas-mediated Phosphorylation of ERK, AsPC-1.
Assay [7] deals with pERK in H727 cells. The description is as above. The note with it: Homo sapiens, NCI-H727, read-out: Inhibition (HTRF IC50) of KRas-mediated Phosphorylation of ERK, H727.
For assay [8], the system named is pERK in A549 cells. The description is as above. Particulars: Homo sapiens, A549, read-out: Inhibition (HTRF IC50) of KRas-mediated Phosphorylation of ERK, A549.
Assay [9] deals with pERK in H460 cells. The description is as above. The note with it: Homo sapiens, NCI-H460, read-out: Inhibition (HTRF IC50) of KRas-mediated Phosphorylation of ERK, H460.
In assay [10] the test system is pERK in HCT116 cells. The description is as above. Particulars: Homo sapiens, HCT-116, read-out: Inhibition (HTRF IC50) of KRas-mediated Phosphorylation of ERK, HCT116.
Assay [11] relates to pERK in H358 cells. Described as above. The note with it: Homo sapiens, NCI-H358, read-out: Inhibition (HTRF IC50) of KRas-mediated Phosphorylation of ERK, H358.
Procedure: To harvest cells from flask using 0.05% Trypsin/EDTA solution. Add 10 mL of media to stop trypsinizing. Pipette the cells into a conical bottom 50 mL centrifuge tube and centrifuge 5 min×1000 rpm. • 2. Re-suspend the cell pellet in media, take a cell count, and then adjust the cell density using fresh media. • 3. Seed 6,000 cells into cell culture plate with 50 μL media. […] Incubate cell plate overnight in a 37° C., 5% CO2 incubator. • Compound titrations • 1. Use Tecan to complete the compound addition. Compounds start from 10 uM top, 3-fold dilution, and 10 doses. The final DMSO concentration is 0.8%. Dispensed 0.2 uM Trametinib as Min control. • 2. Incubate cell plate for 3 hrs in the incubator. • Detection with cisbio pERK HTRF kit • 1. […] At the end of the compound treatment, flick-off the media. • 3. Add 35 μL of lysis buffer per well using a Multidrop Combi. Then place on a plate agitator shaking at 300 rpm at 4° C. for 40 mins. • 4. Make up the HTRF antibody buffer. For each assay plate, mix 50 μL of d2-conjugate antibody with 950 μL of detection buffer. Similarly, mix 50 μL of Cryptate antibody with 950 μL of detection buffer. Then mix the two diluted antibodies together. • 5. Dispense 3.4 μL the antibody buffer to wells of an empty assay plate. Seal the plate and centrifuge plate 30 sec×1000 rpm. • 6. At the end of the 4° C. lysis, centrifuge the lysate plates 3 mins×1500 rpm. • 7. Use the Bravo to transfer 13.6 μL of lysate from cell culture plate to assay plate.
Then incubate assay plate for 2 hrs at room temperature. […] At the end of incubation, read plate on the Envision after centrifuging plate 30 sec× • 1000 rpm.

Sequence of KRas G12V (P01116 1-169 isoform P01116-2 G12V): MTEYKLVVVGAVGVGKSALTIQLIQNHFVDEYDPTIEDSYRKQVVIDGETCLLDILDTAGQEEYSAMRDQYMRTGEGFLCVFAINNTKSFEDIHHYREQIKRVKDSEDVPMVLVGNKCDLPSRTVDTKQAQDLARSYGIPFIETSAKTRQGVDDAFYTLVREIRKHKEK
Sequence of KRas G12D (P01116 1-169 isoform P01116-2 G12D): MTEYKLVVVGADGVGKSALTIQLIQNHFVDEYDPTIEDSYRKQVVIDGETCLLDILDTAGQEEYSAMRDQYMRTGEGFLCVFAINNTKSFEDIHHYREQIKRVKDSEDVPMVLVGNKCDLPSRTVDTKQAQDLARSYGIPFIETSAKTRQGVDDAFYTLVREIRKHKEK

Turning to `CCNC(=O)c1cc2n(n1)CCCN(c1nc(OC[C@@]34CCCN3C[C@H](F)C4)nc3c(F)c(-c4cc(O)cc5ccc(F)c(CC)c45)ncc13)C2` [Example 356, N-ethyl-5-(7-(8-ethyl-7-fluoro-3-hydroxynaphthalen-1-yl)-8-fluoro-2-(((2R,7aS)-2-fluorohexahydro-1H-pyrrolizin-7a-yl)methoxy)pyrido[4,3-d]pyrimidin-4-yl)-5,6,7,8-tetrahydro-4H-pyrazolo[1,5-a][1,4]diazepine-2-carboxamide], the IC50 in [1] is at most 2 nM; in assay [2], at most 2 nM; in assay [3] it was at most 2 nM; in [4] it was 40 nM; in assay [5], 9300 nM; in assay [6] it was 16 nM. The IC50 in assay [7] came out at 63 nM; in [8] it was 232 nM; in assay [9], 458 nM; in assay [10], 767 nM; in assay [11], 20 nM.
Consider `CCc1c(F)ccc2cc(O)cc(-c3ncc4c(N5CCCn6nc(C(=O)N(C)CC)cc6C5)nc(OC[C@@]56CCCN5C[C@H](F)C6)nc4c3F)c12` [Example 358, N-ethyl-5-(7-(8-ethyl-7-fluoro-3-hydroxynaphthalen-1-yl)-8-fluoro-2-(((2R,7aS)-2-fluorotetrahydro-1H-pyrrolizin-7a(5H)-yl)methoxy)pyrido[4,3-d]pyrimidin-4-yl)-N-methyl-5,6,7,8-tetrahydro-4H-pyrazolo[1,5-a][1,4]diazepine-2-carboxamide], for which the half-inhibitory concentration (IC50) in assay [1] was at most 2 nM; in assay [2] it was at most 2 nM; in assay [3] it was at most 2 nM; in [4], 4 nM; in assay [5] it was 9770 nM; in assay [6], 12 nM. In addition, the IC50 turned out to be 15 nM in assay [7]; 44 nM in assay [8]; 131 nM in assay [9]; 167 nM in [10]; 3 nM in assay [11].
Take `CCc1c(F)ccc2cc(O)cc(-c3ncc4c(N5CCCC6(CCS(=O)(=O)C6)C5)nc(OC[C@@]56CCCN5C[C@H](F)C6)nc4c3F)c12` (stereo partly drawn) [Example 507, 7-(7-(8-ethyl-7-fluoro-3-hydroxynaphthalen-1-yl)-8-fluoro-2-(((2R,7aS)-2-fluorohexahydro-1H-pyrrolizin-7a-yl)methoxy)pyrido[4,3-d]pyrimidin-4-yl)-2-thia-7-azaspiro[4.5]decane 2,2-dioxide]: the 50% inhibitory concentration (IC50) was at most 2 nM in assay [1]; at most 2 nM in assay [2]; 4 nM in assay [3]; 7 nM in assay [4]; 1950 nM in assay [5]; 25 nM in [6]. The IC50 in assay [7] turned out to be 262 nM; in assay [8] it was 345 nM; in assay [9] it was 179 nM; in [10], 341 nM; in [11], 40 nM.
In the case of `CCc1c(F)ccc2cc(O)cc(-c3ncc4c(N5CCC[C@@](C)(O)C5)nc(OCC5(CN6CCCCC6)CC5)nc4c3F)c12` [Example 331, (R)-1-(7-(8-ethyl-7-fluoro-3-hydroxynaphthalen-1-yl)-8-fluoro-2-((1-(piperidin-1-ylmethyl)cyclopropyl)methoxy)pyrido[4,3-d]pyrimidin-4-yl)-3-methylpiperidin-3-ol], the IC50 was at most 2 nM in assay [1]; at most 2 nM in assay [2]; at most 2 nM in assay [3]; 1 nM in assay [4]; 4 nM in assay [6]; 35 nM in assay [7]. The IC50 in assay [8] was 6 nM; in assay [9], 16 nM; in assay [10], 27 nM; in [11] it was 3 nM.
`CCc1c(F)ccc2cc(O)cc(-c3ncc4c(N5CCC[C@@](C)(O)C5)nc(OCC5(CN(C)C)CC5)nc4c3F)c12` [Example 316, (R)-1-(2-((1-((dimethylamino)methyl)cyclopropyl)methoxy)-7-(8-ethyl-7-fluoro-3-hydroxynaphthalen-1-yl)-8-fluoropyrido[4,3-d]pyrimidin-4-yl)-3-methylpiperidin-3-ol]: the IC50 in assay [4] came to 1 nM; in [5] it was 2040 nM; in [6] it was 8 nM; in [7] it was 32 nM; in assay [8] it was 51 nM; in assay [9] it was 69 nM. The IC50 in assay [10] was 30 nM; in assay [11], 9 nM.
Take `O=S1(=O)NC[C@]2(CCCN(c3nc(OC[C@@]45CCCN4C[C@H](F)C5)nc4c(F)c(-c5cc(O)cc6ccc(F)c(Cl)c56)ncc34)C2)N1` [Example 515, (R)-7-(7-(8-chloro-7-fluoro-3-hydroxynaphthalen-1-yl)-8-fluoro-2-(((2R,7aS)-2-fluorotetrahydro-1H-pyrrolizin-7a(SB)-yl)methoxy)pyrido[4,3-d]pyrimidin-4-yl)-2-thia-1,3,7-triazaspiro[4.5]decane2,2-dioxide]: the IC50 in assay [1] was at most 2 nM; in [2], at most 2 nM; in assay [3], at most 2 nM; in assay [6], 35 nM; in [7], 19 nM; in [8], 36 nM. Also, the half-inhibitory concentration (IC50) in assay [9] was found to be 19 nM; in assay [10], 24 nM; in [11] it was 7 nM.
On to `CCc1c(F)ccc2cc(O)cc(-c3ncc4c(N5CCC[C@]6(C5)C[C@@H](O)C6)nc(OC[C@@]56CCCN5C[C@H](F)C6)nc4c3F)c12` (single isomer, unassigned) [Example 324], for which the 50% inhibitory concentration (IC50) worked out at 3 nM in assay [4]; 1440 nM in assay [5]; 35 nM in [6]; 22 nM in [7]; 95 nM in assay [8]; 99 nM in [9]. In addition, the IC50 was 61 nM in assay [10] and 14 nM in [11].
Turning to `C[C@@]1(O)CCCN(c2nc(OC[C@@]34CCCN3C[C@H](F)C4)nc3c(F)c(-c4cc(O)cc5ccc(F)c(F)c45)ncc23)C1` [Example 514, (R)-1-(7-(7,8-difluoro-3-hydroxynaphthalen-1-yl)-8-fluoro-2-(((2R,7aS)-2-fluorohexahydro-1H-pyrrolizin-7a-yl)methoxy)pyrido[4,3-d]pyrimidin-4-yl)-3-methylpiperidin-3-ol], the IC50 came out at 5 nM in assay [4]; 859 nM in assay [5]; 15 nM in [6]; 19 nM in assay [7]; 20 nM in assay [8]; 60 nM in [9]. Further, the IC50 was determined as 30 nM in assay [10] and 11 nM in assay [11].
Turning to `CCc1c(F)ccc2cc(O)cc(-c3ncc4c(N5CCCOCC5)nc(OC[C@@]56CCCN5C[C@H](F)C6)nc4c3F)c12` [Example 315, 5-ethyl-6-fluoro-4-(8-fluoro-2-(((2R,7aS)-2-fluorohexahydro-1H-pyrrolizin-7a-yl)methoxy)-4-(1,4-oxazepan-4-yl)pyrido[4,3-d]pyrimidin-7-yl)naphthalen-2-ol], the half-inhibitory concentration (IC50) in assay [4] amounted to 5 nM; in [5], 1960 nM; in assay [6] it was 20 nM; in assay [7] it was 20 nM; in [8], 28 nM; in assay [9] it was 34 nM. Further, the IC50 in [10] came out at 24 nM; in [11], 5 nM.
Regarding `CCc1c(F)ccc2cc(O)cc(-c3ncc4c(N5CCC[C@]6(C5)C[C@H](O)C6)nc(OC[C@@]56CCCN5C[C@H](F)C6)nc4c3F)c12` (single isomer, unassigned) [Example 323], the IC50 in assay [4] stood at 2 nM; in [5], 600 nM; in assay [6], 8 nM; in assay [7], 8 nM; in assay [8], 19 nM; in assay [9], 11 nM. The half-inhibitory concentration (IC50) came out at 22 nM in assay [10] and 2 nM in assay [11].

For orientation: IC50 means the concentration that inhibits the measured activity by half.

(Values after US12398154B2, “Azaquinazoline pan-KRas inhibitors” (Mirati Therapeutics, Inc., priority 2020, dated 2025).)
